Measured values as given in article PMC6776562, “Inhibition of Rac1-dependent forgetting alleviates memory deficits in animal models of Alzheimer’s disease” (Protein & Cell, 2019).
“Also recorded” adds a separate entry of the source.

Key:
[1] = In vitro metabolic stability in mouse liver microsomes; assay type: in vitro ADME
Protocol: Measurements of metabolic stability can be performed with liver microsomes, which are known to contain the major drug-metabolizing enzymes and UDP-glucuronosyltransferase (Baranczewski et al., [2006]). The in vitro metabolic stability levels of CS7171 and JKF-034 were measured using human, monkey, and mouse liver microsomes. The metabolic half-time (T1/2) and intrinsic clearance (Clint) were assayed using LC-MS analysis. Ketanserin is a potent, orally effective antagonist of endogenous serotonin. Its pharmacological profile is well studied (Brogden and Sorkin, [1990]). In this study, we used ketanserin as a control. If the T1/2 of the tested compound was 30–120 min, the compound was considered to show moderate metabolism in liver microsomes. If the T1/2 value was less than 30 min, the compound was considered to be susceptible to metabolism in liver microsomes.

MDR-MDCK cell line = test: In vitro blood-brain barrier permeability assay; assay type: in vitro ADME; conditions: 5 μmol/L, 37 °C, 90 min
Protocol: The MDR-MDCK cell line can be used as a fast blood-brain barrier (BBB) model to aid drug discovery (Wang et al., [2005]). In this study, the MDR-MDCK cell line was used to evaluate the permeability coefficients of CS7171 and JKF-034. Briefly, CS7171 and JKF-034 were prepared to final concentrations of 5 μmol/L. The cells were dosed on the basolateral side (B-A) and apical side (A-B) and incubated at 37 °C for 90 min. Each test was performed in duplicate. The apparent permeability coefficient, Papp, was calculated using the following formula: Papp=VA/Area×Time×(drugacceptor,90-min/drugdonor,0-min×Dilution Factor
VA is the volume in the acceptor well, Area is the surface area of the membrane, Time is the total transport time in seconds, [drug]donor, 0-min is the donor drug concentration measured at 0 min; [drug]acceptor, 90-min is the acceptor drug concentration measured at 90 min; dilution factor is the degree of dilution of the donor sample before loading to LC-MS/MS.

Cdc42 = Cdc42 activity (Cdc42-GTP) by Western blot after drug administration; assay type: in vivo; conditions: 7-month-old APP/PS1 mice; two weeks of P.O administration
Protocol: The hippocampal tissues from human subjects and mice were harvested and stored in a liquid nitrogen tank for biochemical assay. The tissues were homogenized in cold lysis buffer (Merck-Millipore, 20-168). The insoluble debris were removed after centrifugation at 13,000 rpm (for 10 min, at 4 °C). For GTP-bound Rac/Cdc42, lysates were incubated with GST-tagged PAK (p21-activated kinase)-PBD agarose beads (Cytoskeleton, PAK02) overnight at 4 °C. On the second day, the beads were washed three times with lysis buffer before subjecting them to SDS-PAGE (15%) and transferring them onto nitrocellulose membranes (Millipore, HATF00010). The membranes were incubated with primary antibodies (for Rac1: BD Transduction Laboratories, #610650, 1:2,000 dilution; for Cdc42, Santa Cruz Biotechnology, lot No. sc-8401, 1:500 dilution) overnight at 4 °C and with HRP-conjugated goat anti-mouse IgG (Cell Signaling Technology, #7076) for 1 h at room temperature. Intensities of the detected bands were analyzed using ImageJ software (National Institutes of Health). The total amount of Rac1 in the lysate was detected using a routine Western blot procedure. RhoA-GTP levels were measured by using the Rho-GTP monoclonal antibody (New East, lot No. 26904, Dilution: 1:1,000). […] Data information: All values are expressed as mean r SEM.

APP/PS1 mice = test: Morris water maze (MWM) spatial learning in AD mice; assay type: in vivo, mouse; conditions: APP/PS1 mice (eight-month-old); oral CS7171 50 mg/kg, CS7170 50 mg/kg, JKF-034 40 mg/kg once per day
Protocol: Mice were treated with EHop-016 (10 mg/kg), CS7170 (50 mg/kg), CS7171 (50 mg/kg), and JKF-034 (40 mg/kg). These drugs were dissolved in saline (0.9% NaCl) containing 0.5% Tween-80 (Sigma P4780). Each mouse received 200 μL of the solution by intragastric administration once per day (administered at 9:00 am). The drug administration was started seven days before the beginning of the Morris water maze (MWM) task and was continued until the end of the assay. All control groups were fed with vehicle solution.
The MWM test, a classic paradigm used to study spatial reference memory, was performed (Vorhees and Williams, [2006]). Briefly, a circular polypropylene water tank (120 cm in diameter) was filled with opaque water and milk (20 °C ± 1 °C) and a transparent platform (15 cm diameter) was submerged (2 cm below the water surface) in the center of one of the four virtually divided quadrants. Distal cues were fixed on the wall of the tank as spatial references. For the classic training paradigm (Figs. 2 and 6), mice were allowed to find the platform within 60 s and to remain on it for at least 5 s. For the modified training paradigm (Fig. 3A), mice were trained over 5 consecutive sessions with a 1-h intervals within one day. After training, mice were returned to their home cages and the memory of the location of the platform was tested at 6 h after training (Fig. 3C–D). A mouse behavior tracking software (ANY-maze software) was used to record data automatically.

Clint [1]	T1/2 [1] [min]	Papp Mean, A-B (MDR-MDCK cell line)	Papp Mean, B-A (MDR-MDCK cell line)	SMILES	Cdc42 activity (Cdc42)	MWM learning deficit / spatial memory (APP/PS1 mice)
477.87 mL/min/kg	11.42	7.91 10^−6 cm/s	3.61 10^−6 cm/s	O=C1NN(c2ccc(Cl)c(Cl)c2)C(=O)C1=Cc1ccc(O)c(N(O)O)c1 [CS7171]	did not affect	mitigated learning deficits; also recorded: rescued; also recorded: effective
4,702.82 mL/min/kg	1.16	57.33 10^−6 cm/s	32.79 10^−6 cm/s	O=S(=O)(c1ccccc1)N1CCN(Cc2ccccc2)CC1 [JKF-034]	did not affect	effective; also recorded: rescued
